Patent publication US20200061007A1, “CANCER STEM CELL PROLIFERATION INHIBITOR” (NATIONAL INSTITUTE OF ADVANCED INDUSTRIAL SCIENCE AND …, priority 2014, published 2020)

Legend:
[1] = tested on: human pancreatic cancer cells MIA-Paca2; assay: Tumor volume, MIA-Paca2/nude mice; assay type: in vivo
Description: A tumor piece of human pancreatic cancer cells MIA-Paca2 containing cells positive for cancer stem cell markers was subcutaneously transplanted to the dorsal part of each of 6-week-old female BALB/cAJc1-nu nude mice (4 mice/group, 5 mice only for the control group) using a trocar needle. At the time when the tumor volume reached 100 to 200 mm^3, the administration was started. Am80 was orally administered once a day at a dose of 2 mg/kg for 21 continuous days, and DXL was intravenously administered at a dose of 5 mg/kg from Day 1, 3 times at intervals of 4 days. In the combination group, the agents were administered at the same doses as, and by the same administration methods as, those in the cases of administration of each single agent. Measurement of the tumor diameter was carried out until the next day of the completion of the administration (Day 22). Based on the measured values of the longitudinal diameter and the transverse diameter, the tumor volume (mm^3) was determined according to the following formula: longitudinal diameter×transverse diameter^2/2. In the control group, physiological saline was intraperitoneally administered from Day 1, 3 times at intervals of 4 days.

[2] = tested on: human prostate cancer cell line LNCaP; assay: Tumor volume, LNCaP/nude mice; assay type: in vivo
Description: (§1) A tumor piece of a human prostate cancer cell line LNCaP containing cells positive for cancer stem cell markers was subcutaneously transplanted to the dorsal part of each of 6-week-old female BALB/cAJc1-nu nude mice (4 mice/group) using a trocar needle. At the time when the tumor volume reached 100 to 200 mm^3, the administration was started. Am80 was orally administered once a day at a dose of 1 mg/kg for 21 continuous days, and DXL was intravenously administered at a dose of 5 mg/kg from Day 1, 3 times at intervals of 4 days. In the combination group, the agents were administered at the same doses as, and by the same administration methods as, those in the cases of administration of each single agent. Measurement of the tumor diameter was carried out until the next day of the completion of the administration (Day 22). The longitudinal diameter and the transverse diameter of the tumor were measured using a caliper, and the tumor volume (mm^3) was determined according to the following formula: longitudinal diameter×transverse diameter^2/2. In the control group, physiological saline was intraperitoneally administered from Day 1, 3 times at intervals of 4 days.

[3] = tested on: human breast cancer cell line MCF-7; assay: Tumor volume, MCF-7/nude mice; assay type: in vivo
Description: as §1, with “breast” for “prostate”, “MCF-7” for “LNCaP”, “(5” for “(4”, “3.5” for “5”

[4] = tested on: human breast cancer cell line MCF-7; assay: Growth inhibition of MCF-7 in vitro; assay type: cell-based; conditions: MCF-7, 96 hours of exposure, RPMI1640 with 2% FBS
Description: A human breast cancer cell line MCF-7, containing cells positive for cancer stem cell markers, was cultured in RPMI1640 medium supplemented with 2% FBS, and the growth inhibitory action by the combination of Am80 and 5-AZ was studied. The IC50 values of the agents determined by 96 hours of the exposure were 1 μM and 20 μM, respectively. Thus, in order to study the growth inhibitory action, Am80 was used within the concentration range of 0.125 μM to 1 μM with a common ratio of 2, and 5-AZ was used within the concentration range of 2.5 μM to 20 μM with a common ratio of 2. In cases of use of these agents in combination, the growth inhibitory action was studied using these concentrations.

[5] = tested on: Human Leukemia Cell Line Kasumi-1; assay: Growth inhibition of Kasumi-1, isobologram; assay type: cell-based; conditions: Kasumi-1, RPMI1640 with 20% FBS
Description: A human leukemia cell line Kasummi-1, containing cells positive for cancer stem cell markers, was cultured in RPMI1640 medium supplemented with 20% FBS, and the growth inhibitory action by the combination of Am80 and 5-AZ was studied using Isobologram. […] These concentrations were taken as 1.0, and the points corresponding to 1.0 in the two axes were connected to each other via a straight line. In cases where the ratio observed for the combination effect is on the line, the effect is additive, and, in cases where the ratio is below the line, the effect is synergistic.

[6] = tested on: human prostate cancer cell line LNCaP; assay: Growth inhibition of LNCaP in vitro; assay type: cell-based; conditions: 96 hours of exposure, RPMI1640 with 10% FBS
Description: A human prostate cancer cell line LNCaP, containing cells positive for cancer stem cell markers, was cultured in RPMI1640 medium supplemented with 10% FBS, and the growth inhibitory action by the combination of Am80 and 5-AZ was studied. […] Thus, in order to study the growth inhibitory action, Am80 was used within the concentration range of 0.125 μM to 1 μM with a common ratio of 2, and 5-AZ was used within the concentration range of 1.56 μM to 12.5 μM with a common ratio of 2. In cases of use of these agents in combination, the growth inhibitory action was studied using these concentrations.

Question: With CC(=O)O[C@@]12CO[C@@H]1C[C@H](O)[C@@]1(C)C(=O)[C@H](O)C3=C(C)[C@@H](OC(=O)[C@H](O)[C@@H](NC(=O)OC(C)(C)C)c4ccccc4)C[C@@](O)([C@@H](OC(=O)c4ccccc4)[C@H]21)C3(C)C [DXL, Docetaxel] as the compound, how does the “tumor volume Day 1” value ([1]; Am80 2 mg/kg oral daily 21 days, DXL 5 mg/kg i.v. 3 times at intervals of 4 days, Day 1) read?
Answer: 136.7 mm^3

Question: And the “tumor volume Day 5” value ([1]; Am80 2 mg/kg oral daily, DXL 5 mg/kg i.v., Day 5)?
Answer: 151.3 mm^3

Question: And the “tumor volume Day 9” value ([1]; Am80 2 mg/kg oral daily, DXL 5 mg/kg i.v., Day 9)?
Answer: 135.7 mm^3

Question: And the “tumor volume Day 13” value ([1]; Am80 2 mg/kg oral daily, DXL 5 mg/kg i.v., Day 13)?
Answer: 93.7 mm^3

Question: And the “tumor volume Day 17” value ([1]; Am80 2 mg/kg oral daily, DXL 5 mg/kg i.v., Day 17)?
Answer: 76.3 mm^3

Question: And the “tumor volume Day 22” value ([1]; Am80 2 mg/kg oral daily, DXL 5 mg/kg i.v., Day 22)?
Answer: 77.3 mm^3

Question: And the “tumor volume Day 1” value ([2]; Am80 1 mg/kg oral daily 21 days, DXL 5 mg/kg i.v. 3 times at intervals of 4 days, Day 1)?
Answer: 126.7 mm^3

Question: What about the “tumor volume Day 5” value ([2]; Am80 1 mg/kg oral daily, DXL 5 mg/kg i.v., Day 5) of the same compound?
Answer: 111.3 mm^3

Question: And the “tumor volume Day 9” value ([2]; Am80 1 mg/kg oral daily, DXL 5 mg/kg i.v., Day 9)?
Answer: 90.7 mm^3

Question: And the “tumor volume Day 13” value ([2]; Am80 1 mg/kg oral daily, DXL 5 mg/kg i.v., Day 13)?
Answer: 73.7 mm^3

Question: And the “tumor volume Day 17” value ([2]; Am80 1 mg/kg oral daily, DXL 5 mg/kg i.v., Day 17)?
Answer: 72.5 mm^3

Question: And the “tumor volume Day 22” value ([2]; Am80 1 mg/kg oral daily, DXL 5 mg/kg i.v., Day 22)?
Answer: 70.2 mm^3

Question: And the “tumor volume Day 1” value ([3]; Am80 1 mg/kg oral daily 21 days, DXL 3.5 mg/kg i.v. 3 times at intervals of 4 days, Day 1)?
Answer: 143.5 mm^3

Question: And the “tumor volume Day 5” value ([3]; Am80 1 mg/kg oral daily, DXL 3.5 mg/kg i.v., Day 5)?
Answer: 121.5 mm^3

Question: What about the “tumor volume Day 9” value ([3]; Am80 1 mg/kg oral daily, DXL 3.5 mg/kg i.v., Day 9) of the same compound?
Answer: 110.0 mm^3

Question: What about the “tumor volume Day 13” value ([3]; Am80 1 mg/kg oral daily, DXL 3.5 mg/kg i.v., Day 13) of the same compound?
Answer: 83.3 mm^3

Question: And the “tumor volume Day 17” value ([3]; Am80 1 mg/kg oral daily, DXL 3.5 mg/kg i.v., Day 17)?
Answer: 66.5 mm^3

Question: What about the “tumor volume Day 22” value ([3]; Am80 1 mg/kg oral daily, DXL 3.5 mg/kg i.v., Day 22) of the same compound?
Answer: 71.3 mm^3

Question: What does the source list for Nc1ncn([C@@H]2O[C@H](CO)[C@@H](O)[C@H]2O)c(=O)n1 [5-AZ, Azacytidine]?
Answer: IC50 [4]: 20 µM; IC50 [5]: 8.4 µM; IC50 [6]: 25 µM
